# Results: ChEMBL document CHEMBL5727600, “1,4-dicarbonyl-piperidyl derivatives” (2020)
# How the values were obtained:
# [1] = molecular target: T1, Poly [ADP-ribose] polymerase tankyrase-1 (Homo sapiens, UniProt O95271); assay: Biochemical Activity Assay: TNKS 1 and 2: The activity ELISA is performed in 384 well Glutathione coated microtiter plates (Express capture Glutathione coated plate, Biocat, Heidelberg, Germany). The plates are pre-equilibrated with PBS. Then the plates are incubated with 50 μl 20 ng/well GST-tagged Tnks-1 (1023-1327 aa, prepared in-house), respectively GST-tagged Tnks-2 (873-1166 aa, prepared in-house) in assay buffer (50 mM HEPES, 4 mM Mg-chloride, 0.05% Pluronic F-68, 2 mM DTT, pH 7.7) overnight at 4° C. The plates are washed 3 times with PBS-Tween-20. The wells are blocked by incubation at room temperature for 20 minutes with 50 μl blocking buffer (PBS, 0.05% Tween-20, 0.5% BSA). Afterwards the plates are washed 3 times with PBS-Tween-20. The enzymatic reaction is performed in 50 μl reaction solution (50 mM HEPES, 4 mM Mg-chloride, 0.05% Pluronic F-68, 1.4 mM DTT, 0.5% DMSO, pH 7.7) with 10 μM bio-NAD (Biolog, Life science Inst., Bremen, Germany) as co-substrate in the absence or presence of the test compound (10 dilution concentrations) for 1 hour at 30° C. The reaction is stopped by 3 times washing with PBS-Tween-20. For the detection 50 μl of 20 ng/μl Streptavidin, HRP conjugate (MoBiTec, Göttingen, Germany) in PBS/0.05% Tween-20/0.01% BSA are added and the plates are incubated for 30 minutes at room temperature. […]
# T1 sequence (O95271 whole entry): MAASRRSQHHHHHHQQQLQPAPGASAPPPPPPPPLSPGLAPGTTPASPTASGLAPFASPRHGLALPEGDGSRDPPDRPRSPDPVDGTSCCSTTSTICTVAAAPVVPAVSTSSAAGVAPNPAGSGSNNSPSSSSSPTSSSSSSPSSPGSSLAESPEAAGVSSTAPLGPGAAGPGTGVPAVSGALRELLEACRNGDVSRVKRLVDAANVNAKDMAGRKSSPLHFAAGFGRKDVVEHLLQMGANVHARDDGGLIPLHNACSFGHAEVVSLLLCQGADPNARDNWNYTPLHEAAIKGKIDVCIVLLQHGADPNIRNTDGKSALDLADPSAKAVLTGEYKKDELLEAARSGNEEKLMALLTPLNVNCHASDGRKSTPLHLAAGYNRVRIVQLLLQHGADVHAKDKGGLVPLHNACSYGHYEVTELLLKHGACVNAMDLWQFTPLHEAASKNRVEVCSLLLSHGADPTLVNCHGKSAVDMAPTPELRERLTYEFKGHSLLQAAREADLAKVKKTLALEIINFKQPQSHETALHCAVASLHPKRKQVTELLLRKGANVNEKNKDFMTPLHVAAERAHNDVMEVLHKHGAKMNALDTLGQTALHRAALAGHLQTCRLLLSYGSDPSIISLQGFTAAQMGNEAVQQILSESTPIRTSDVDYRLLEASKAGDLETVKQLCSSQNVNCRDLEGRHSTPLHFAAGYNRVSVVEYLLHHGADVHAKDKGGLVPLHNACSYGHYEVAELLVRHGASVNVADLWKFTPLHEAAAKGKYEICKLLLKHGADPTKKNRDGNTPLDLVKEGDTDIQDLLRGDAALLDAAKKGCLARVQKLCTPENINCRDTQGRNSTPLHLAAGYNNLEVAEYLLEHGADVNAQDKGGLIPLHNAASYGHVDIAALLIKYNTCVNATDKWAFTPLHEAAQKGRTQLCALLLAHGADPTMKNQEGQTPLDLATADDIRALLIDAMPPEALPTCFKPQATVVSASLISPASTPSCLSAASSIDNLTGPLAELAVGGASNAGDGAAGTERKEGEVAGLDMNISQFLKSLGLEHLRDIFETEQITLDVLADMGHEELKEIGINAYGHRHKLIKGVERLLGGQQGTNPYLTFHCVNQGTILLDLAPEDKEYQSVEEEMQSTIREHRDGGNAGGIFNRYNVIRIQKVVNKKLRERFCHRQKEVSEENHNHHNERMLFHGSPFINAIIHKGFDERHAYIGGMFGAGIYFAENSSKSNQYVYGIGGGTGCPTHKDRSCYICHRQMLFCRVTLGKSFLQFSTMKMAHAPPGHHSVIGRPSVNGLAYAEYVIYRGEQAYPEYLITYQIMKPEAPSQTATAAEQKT
# [2] = molecular target: T2, Poly [ADP-ribose] polymerase tankyrase-2 (Homo sapiens, UniProt Q9H2K2); assay: Biochemical Activity Assay: TNKS 1 and 2: The activity ELISA is performed in 384 well Glutathione coated microtiter plates (Express capture Glutathione coated plate, Biocat, Heidelberg, Germany). The plates are pre-equilibrated with PBS. Then the plates are incubated with 50 μl 20 ng/well GST-tagged Tnks-1 (1023-1327 aa, prepared in-house), respectively GST-tagged Tnks-2 (873-1166 aa, prepared …
# T2 sequence (Q9H2K2 whole entry): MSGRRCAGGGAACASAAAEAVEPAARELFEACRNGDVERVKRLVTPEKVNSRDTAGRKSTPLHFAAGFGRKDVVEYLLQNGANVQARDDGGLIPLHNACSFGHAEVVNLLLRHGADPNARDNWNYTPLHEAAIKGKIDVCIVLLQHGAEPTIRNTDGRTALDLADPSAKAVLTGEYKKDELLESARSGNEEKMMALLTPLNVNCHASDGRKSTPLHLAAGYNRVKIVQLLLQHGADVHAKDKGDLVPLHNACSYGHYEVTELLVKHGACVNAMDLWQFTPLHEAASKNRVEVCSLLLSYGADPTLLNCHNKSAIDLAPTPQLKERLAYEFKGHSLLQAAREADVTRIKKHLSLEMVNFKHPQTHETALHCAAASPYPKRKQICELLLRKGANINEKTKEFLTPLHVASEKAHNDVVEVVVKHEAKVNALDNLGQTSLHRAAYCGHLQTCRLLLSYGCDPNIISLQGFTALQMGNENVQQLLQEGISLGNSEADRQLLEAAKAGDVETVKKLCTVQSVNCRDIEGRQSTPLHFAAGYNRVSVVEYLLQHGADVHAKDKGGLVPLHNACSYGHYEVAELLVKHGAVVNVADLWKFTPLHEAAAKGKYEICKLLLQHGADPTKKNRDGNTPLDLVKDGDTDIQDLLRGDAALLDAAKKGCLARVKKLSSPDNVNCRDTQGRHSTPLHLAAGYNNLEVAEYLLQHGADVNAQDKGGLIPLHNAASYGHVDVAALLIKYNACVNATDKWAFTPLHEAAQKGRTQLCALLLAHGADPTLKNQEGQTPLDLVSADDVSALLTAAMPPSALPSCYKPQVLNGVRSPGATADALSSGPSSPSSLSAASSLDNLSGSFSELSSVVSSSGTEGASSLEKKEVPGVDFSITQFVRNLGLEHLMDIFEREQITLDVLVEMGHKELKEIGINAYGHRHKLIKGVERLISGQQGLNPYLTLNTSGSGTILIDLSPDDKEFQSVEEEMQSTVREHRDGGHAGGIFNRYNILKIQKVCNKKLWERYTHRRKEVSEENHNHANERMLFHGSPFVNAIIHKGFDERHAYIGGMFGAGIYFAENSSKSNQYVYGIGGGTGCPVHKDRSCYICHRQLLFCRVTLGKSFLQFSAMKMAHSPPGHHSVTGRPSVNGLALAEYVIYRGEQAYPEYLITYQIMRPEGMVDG
Compound,IC50 [1],IC50 [2]
Cc1cc(F)cc2c(=O)[nH]c(C[C@@H](C)CC(=O)N3CCC(C(=O)c4cnn(C)c4)CC3)nc12,0.66 nM,0.59 nM
Cc1cc(F)cc2c(=O)[nH]c(C[C@H](C)CC(=O)N3CCC(C(=O)c4cnn(C)c4)CC3)nc12,0.31 nM,0.2 nM
